Measurements taken from patent US9463188B2, “Osteopontin production inhibitor containing dictyopyrone derivative or dihydrodictyopyrone derivative as active ingredient” (TOHOKU UNIVERSITY, priority 2013, dated 2016).
pEC50, pIC50: −log10 of the molar value.

Columns and labels:
A549/OPNluc cells = test: WST assay (cell growth inhibition); format: cell-based; settings: Homo sapiens, 48±4 hours, WST-1, read-out: IC50 (concentration for 50% inhibition of cell growth)
Excerpt: (§1) A reporter vector pOPN1-luc obtained by inserting a human OPN promoter sequence (−765 to 23) into the multiple cloning site of pGL-3 basic vector (Promega) expresses luciferase when transfected into animal cells. This pOPN1-luc was transfected into a human non-small cell lung cancer-derived cell line A549 together with pPUR (Clontech) that expresses a puromycin resistance gene (puromycin-N-acetyl-transferase gene), and cells that could grow in a puromycin-supplemented medium and expressed luciferase were selected. The selected cells were named A549/OPNluc cells and used for observation of luciferase expression inhibitory effect under control of OPN promoter, as described later.
(§2) A test compound was added to a culture liquid containing A549/OPNluc cells to observe its influence on the amount of luciferase expressed in the cells. Here, it can be considered that when the test compound has cytotoxity or cell growth-suppressing effect, the total expression level of luciferase is reduced due to a reduction in the number of living cells that depends on the concentration of the test compound, and therefore the luciferase expression inhibitory effect of the test compound under control of OPN promoter cannot be properly evaluated. For this reason, WST assay for quantification of cell proliferation ability or cell viability by colorimetric measurement was first performed to determine IC50 (concentration for 50% inhibition of cell growth) of the test compound for cell growth. Then, luciferase activity measurement was performed to determine EC50 (concentration for 50% inhibition of luciferase expression) of the test compound for luciferase expression under control of OPN promoter.
A549/OPNluc cells were suspended in DMEM medium containing 10% fetal calf serum (FCS) and 1% penicillin/streptomycin (P/S) at 3×10^4 cells/mL to obtain a cell suspension, and 100 μL of the cell suspension was dispensed into each well of a 96-well plate. In order to perform the assay in triplicate, 3 wells were prepared for a control group and 3 wells were prepared for each test compound-treated group at each concentration. After the dispensing, the 96-well plate was incubated in a CO2 incubator (at 37° C. and 5% CO2) for 24±4 hours.
The test compound was dissolved in dimethylsulfoxide (DMSO) to obtain a 50 mmol/L solution, and the test compound solution was stored at −80° C. The test compound solution was diluted with DMSO in 2-fold dilution series (usually, in the range of 0.31 mmol/L to 20 mmol/L) to prepare test compound solutions whose concentration varied by two fold for WST assay.
Only DMSO (control) or the diluted test compound (sample) solution was dispensed in an amount of 0.5 μL into each well containing the cell suspension (200-fold dilution). The solution in each well was mixed with a vortex mixer, and then the 96-well plate was incubated in a CO2 incubator (at 37° C. and 5% CO2) for 48±4 hours. Then, 10 μL of Premix WST-1 Reagent (TAKARA BIO INC.) was added to each well. The solution in each well was mixed with a vortex mixer, and then the 96-well plate was incubated at 37° C. and 5% CO2. After 60 minutes or 120 minutes, absorbance values (450 nm) were measured using a microplate reader (Bio-Rad; Benchmark or Thermo Scientific; Varioskan Flash).
(§3) The absorbance values of the control wells and the absorbance values of the sample wells at each concentration were input into an Excel file to determine the percentages of absorbance values of the sample wells at each concentration with respect to the average of absorbance values of the control wells. From the determined values, a fitted curve was determined by the method of least squares to calculate IC50.

[1] = system: human OPN promoter (pOPN1-luc) in A549/OPNluc cells; test: Luciferase assay: luciferase expression under control of OPN promoter; format: cell-based; settings: for EC50 value relative to respective IC50 value: EC50 luciferase assay vs IC50 WST assay; for pEC50: Homo sapiens, 48±4 hours, read-out: EC50 (concentration for 50% inhibition of luciferase expression under control of OPN promoter)
Excerpt: as §1, §2
The same steps as in the above-described WST assay were performed in which only DMSO (control) or the diluted test compound (sample) solution was added in an amount of 0.5 μL to each well containing the cell suspension to achieve 200-fold dilution, and the solution in each well was mixed with a vortex mixer, and the 96-well plate was incubated in a CO2 incubator (at 37° C. and 5% CO2) for 48±4 hours.
A luciferase reagent was prepared by dissolving Luciferase Assay Substrate (hereinafter, referred to as “LAS”) supplied in Luciferase Assay Systems (Promega: Cat# E1500) with Luciferase Assay Buffer (LAB). 5× Cell Culture Lysis Reagent (hereinafter, referred to as “CCLR”) was diluted with water 5-fold to prepare 1×CCLR.
After the incubation for 48±4 hours, the medium in each well was completely removed, and 50 μL of 1×CCLR was dispensed into each well. The 96-well plate was allowed to stand at room temperature for 30 minutes, and then 1×CCLR in each well was used as an assay sample. The luciferase reagent of 100 μL was placed in a tube for chemiluminescence measurement, and 20 μL of the assay sample was added to the tube and mixed with the luciferase reagent to measure chemiluminescence (Relative Luminescence Intensity: RLU) using Tuner Design Luminometer 20/20 (Promega).
as §3, with “RLU” for “absorbance”, “file, and” for “file to determine”, “wells were determined.” for “wells.”, “these” for “the determined”, “EC50.” for “IC50.”

| pIC50 (A549/OPNluc cells) | EC50 value relative to respective IC50 value [1] | pEC50 [1] | SMILES |
| --- | --- | --- | --- |
| 3.89 | ½ | 4.61 | CCCCCCCCCCCC(=O)C1=C(C)CC(C)(C)OC1=O [Chemical formula 1] |
| 4.23 | ½ | 4.53 | CCCCCCCCCCCC(=O)C1=C(C)C[C@H](C)NC1=O [Chemical formula 2] |
| 4.37 | ½ | 4.71 | CCCCCCCCCCCC(=O)[C@@H]1C(=O)N[C@@H](C)C[C@H]1C [Chemical formula 4] |
| 3.89 | – | 4.20 | CCCCCCCCCCCC(=O)C1=C(C)C[C@H](C)OC1=O [Chemical formula 5] |
| < 4.00 | – | < 4.00 | CCCC(=O)C1=C(C)C[C@H](C)OC1=O [Chemical formula 6] |
| < 4.00 | – | < 4.00 | CCCCCCCC(=O)C1=C(C)C[C@H](C)OC1=O [Chemical formula 7] |
| 3.95 | ½ | 4.26 | CCCCCCCCCCCC(=O)C1=C(C)C[C@@H](C)OC1=O [Chemical formula 8] |
| < 4.00 | – | < 4.00 | COC(=O)CCCCCCC(=O)C1=C(C)C[C@H](C)OC1=O [Chemical formula 9, methyl (S)-8-(4,6-dimethyl-2-oxo-5,6-dihydro-2H-pyran-3-yl)-8-Oxooctanoate] |
| 3.96 | – | 4.20 | CCCC(=O)C1=C(C)C[C@H](C)NC1=O [Chemical formula 10, (S)-3-butanoyl-5,6-dihydro-4,6-dimethyl-1H-pyridin-2-one] |
| < 4.00 | – | < 4.00 | CCCCCCCC(=O)C1=C(C)C[C@H](C)NC1=O [Chemical formula 11, (S)-5,6-dihydro-4,6-dimethyl-3-octanoyl-1H-pyridin-2-one] |
| < 4.30 | – | < 4.30 | CCCCCCCCCCCC(=O)[C@@H]1C(=O)O[C@@H](C)C[C@H]1C [Chemical formula 12] |
| < 4.30 | – | < 4.30 | CCCCCCCCCCCC(=O)[C@H]1C(=O)O[C@H](C)C[C@@H]1C [Chemical formula 13] |
| 4.27 | – | 4.53 | CCCCCCCCCCCC(=O)[C@H]1C(=O)OC(C)(C)C[C@@H]1C [Chemical formula 14] |
| 4.06 | ½ | 4.36 | CCCCCCCCCCCC(O)[C@H]1C(=O)O[C@@H](C)C[C@@H]1C (stereo partly drawn) [Chemical formula 15] |
| < 4.00 | ½ | 4.51 | CCCCCCCCCCC/C(OC(C)=O)=C1\C(=O)O[C@@H](C)C[C@@H]1C [Chemical formula 16] |
